Data as given in US20130085133A1, “ANTI-VIRAL TREATMENT AND ASSAY TO SCREENFOR ANTI-VIRAL AGENT” (Sourthern Research Institute Office of Commercialization …, priority 2010, published 2013).

Columns and labels:
RSV, Long strain = assay: virus titer Reduction (VTR) assay, progeny virus TCID50 in HEp-2 cells; type: cell-based, respiratory syncytial virus (RSV); settings: human respiratory syncytial virus, 48 h; for log reduction at 3 µg/mL: 3 ug/ml compound, read-out: TCID-50 Reduction @ 3 ug/ml; for log reduction at 6 µg/mL: 6 ug/ml compound, read-out: TCID-50 Reduction 6 @ ug/ml; for log reduction at 12 µg/mL: 12 ug/ml compound, read-out: TCID-50 Reduction 12 @ ug/ml; for log reduction at 25 µg/mL: 25 ug/ml compound, read-out: TCID-50 Reduction 25 @ ug/ml; for log reduction at 5 µg/mL: 5 ug/ml compound, read-out: TCID-50 Reduction @ 5 ug/ml; for log reduction at 50 µg/mL: 50 ug/ml compound, read-out: TCID-50 Reduction @ 50 ug/ml
Procedure: Four concentrations of each compound were evaluated (Table 3). Briefly, the four concentrations of test compounds, HEp-2 cells (8×10^3 per well) and RSV, Long strain (MOI=0.9) were plated in 96 well microtiter plates. The plates were incubated for 48 hours. Fifteen (15) μl of 10-fold serial dilution of progeny virus containing medium from respective samples (test compound treated or untreated) was transferred to infect fresh HEp-2 cells (2×10^3 cells per well) in a 384 well format. Plates were incubated for an additional 6 days and luminescence was measured using Cell Titer-Glo reagent (Promega Inc.) to determine cell viability. […] A well showing lesser than 50% cell viability was regarded as positive for virus infection. Four replicates for each virus dilution were analyzed and the number of virus positive wells (out of 4) was plotted versus the dilution. TCID50 was calculated to be the dilution that produced two positive wells out of four using ActivityBase software (IDBS, Inc, Guilford, UK).

[1] = system: respiratory syncytial virus (RSV) strain Long; assay: microbe, parasite or virus in culture; settings: human respiratory syncytial virus, HEp-2, 144 h
Procedure: The assay measures RSV virus-induced CPE in HEp-2 cells using cell viability as the end point.
Two vials of RSV (strain Long) containing 1×10^7 pfu/mL was thawed using an Eppendorf thermomixer for 13 min at 15° C., with shaking at 350 rpm. […] The cells were incubated for 18-20 h at 37° C., 5% CO2, 90% relative humidity. The medium was aspirated and the cells washed with 10 mL PBS without Mg^2+ or Ca^2+. Cells were harvested from flasks using 0.25% trypsin-EDTA. The cells were resuspended in a freezing medium of 95% fetal calf serum and 5% DMSO to a final cell density of 2×10^6 cells/mL. One mL aliquots of this virus infected cell suspension were dispensed to cryovials and cells were rate frozen to −80° C. Frozen infected cells were then transferred to −150° C. for long term storage.
Test compounds were evaluated by measuring their antiviral activity, cell toxicity, and selectivity. Test compounds were serially diluted in a plate to plate matrix or “stacked plate” matrix. All 320 compounds in a source plate were diluted together resulting in a 10 point dose response dilution series. It was visualized as a serial dilution series proceeding vertically through a stack of plates with the high dose plate on top and the low dose plate on the bottom.
Cells were harvested and resuspended to 80,000 cells per ml in Complete DMEM/F12.
Cells were thawed in a room temperature water bath with gentle agitation. The tube was inverted 5-10. Cells were diluted to 80,000 cells per ml by adding the contents of the vial to 24 ml of cold (4° C.) media.
Twenty five ul of uninfected HEp-2 cells were plated in the cell control wells. Frozen infected cells were combined with uninfected HEp-2 cells at a 1:100 ratio. Twenty five ul of the cell mixture was added to the virus control and compound wells. All cell plating was conducted using a Matrix WellMate and cells were maintained at room temperature with stirring during the plating process. The assay plates were incubated for six days at 37° C., 5% CO2 and 90% relative humidity.
Following the six day incubation period, the assay plates were equilibrated to room temperature for 30 min and an equal volume (30 μL) of Cell Titer-Glo reagent (Promega Inc.) was added to each well using a WellMate (Matrix, Hudson, N.H.) and plates were incubated for an additional 10 min at room temperature. At the end of the incubation, luminescence was measured using a Perkin Elmer Envision™ multi-label reader (PerkinElmer, Wellesley, Mass.) with an integration time of 0.1 s.
Data was analyzed using ActivityBase software (IDBS, Inc, Guilford, UK). thirty two control wells containing cells only and twenty four wells containing cells and virus were included on each assay plate and used to calculate Z′ value for each plate and to normalize the data on a per plate basis. […] Eight ribavirin positive control wells were included on each plate for quality control purposes, but were not used in Z′ calculations. […] In the toxicity assay, results are described as percent viability and the calculation is the same.
An EC50 (for CPE inhibition) and IC50 (for cell viability) were calculated for each substance using the 4 parameter Levenburg-Marquardt algorithm with parameter A locked at 0 and parameter B locked at 100. Standard deviation, normalized chi2 and hill slope were used to evaluate the curves. Values were not extrapolated beyond the tested range of concentrations.

[2] = cytotoxicity assay (percent viability of HEp-2 cells, Cell Titer-Glo); settings: human, HEp-2 cells

Compound | EC50 [1] | log reduction at 3 µg/mL (RSV, Long strain) | log reduction at 6 µg/mL (RSV, Long strain) | log reduction at 12 µg/mL (RSV, Long strain) | log reduction at 25 µg/mL (RSV, Long strain) | CC50 at 6 days [2] | log reduction at 5 µg/mL (RSV, Long strain) | log reduction at 50 µg/mL (RSV, Long strain)
Cc1ccc(N(CCCCN2C(=O)c3ccccc3C2=O)C(=O)c2cccc([N+](=O)[O-])c2)cc1 [AB00301184] | 2.53 µg/mL | 1.53 | 1.67 | 1.9 | 1.88 | > 25 µg/mL |  | 
COCc1cc(C)nc(SCC(=O)Nc2ccccc2C(=O)c2ccccc2)c1C#N [AB00341850] | 2.19 µg/mL | 1 | 2.3 | 2.41 | 2.23 | > 25 µg/mL |  | 
O=C(c1cc(Cl)ccc1Cl)N1CCCN(C(=O)c2cc(Cl)ccc2Cl)CC1 [AB00311948] | 2.32 µg/mL | 3.13 |  | 5.56 | 5.9 | > 25 µg/mL | 4.64 | 
Cc1ccc(-c2csc(N)c2C(N)=O)cc1C [AB00310739] | 6.31 µg/mL | 1.03 | 1.86 | 1.9 | 2.39 | > 25 µg/mL |  | 
CC(C)=CCC1=C(O)C(=O)c2ccccc2C1=O [AB00514453] | 7.23 µM |  |  | 3.33 | 4.47 | > 50 µM | 0.06 | 4.87
CC1=Nc2ccc(C)c3nc(C)cc(c23)N1c1ccc(C)cc1 [AB00280244] | 8.62 µg/mL | 1.55 | 1.36 | 1.55 | 2.89 | > 25 µg/mL |  | 
CC1(C)O[C@@H]2[C@H](O1)[C@@H](CO)O[C@H]2n1ncc(=O)[nH]c1=O [AB00174524] | 3.25 µM |  |  | 5.98 | 5.56 | > 50 µM | 4.58 | 5.87
COC(=O)c1c(-c2ccccc2)csc1NC(=O)c1ccccc1Cl [AB00311298] | 7.72 µg/mL | 1.53 | 1.86 | 1.9 | 1.88 | > 25 µg/mL |  | 
COc1ccc(C(=O)Nc2ccc3c(c2)OCCO3)c(OC)c1 [AB00296320] | 8.34 µg/mL | 1.55 | 1.38 | 2.9 | 4.66 | > 25 µg/mL |  | 
COC(=O)C1=C(C)N(Cc2ccccc2)C(=O)NC1c1ccc(OC)c(OC)c1 (stereo not drawn) [AB00318114] | 3.37 µg/mL | 2.42 |  | 5.56 | 5.9 | > 25 µg/mL | 4.69 | 
CCCSC1=C(C#N)C(c2ccco2)C(C(=O)Nc2ccccc2)=C(C)N1 (stereo not drawn) [AB00276073] | 5.12 µg/mL | 1 | 0.63 | 1.39 | 3.57 | > 25 µg/mL |  | 
CCOC(=O)Cc1nnc(Nc2ccc(C)cc2)c2ccccc12 [AB00285095] | 9.72 µg/mL | 1 | 1.32 | 1.99 | 2.56 | > 25 µg/mL |  | 
O=C(Cc1cccs1)Nc1nc2c(s1)CCCC2 [AB00313042] | 1.89 µg/mL | 3.56 | 5.24 | 5.43 | 6.4 | > 25 µg/mL |  | 
Cc1cccc(N2C(=O)CC(Cc3ccc(Cl)cc3)C2=O)c1Cl (stereo not drawn) [AB00292352] | 8.56 µg/mL | 1.22 |  | 3.82 | 5.9 | > 25 µg/mL | 2.31 | 
O=C1c2ccccc2C(=O)N1CCCCN(C(=O)c1ccco1)c1ccc(Cl)cc1 [AB00302018] | 3.4 µg/mL | 1.66 | 2.64 | 2.68 | 3.07 | > 25 µg/mL |  | 
O=C1c2ccccc2C(=O)N1CCCCN(C(=O)c1cccc([N+](=O)[O-])c1)c1ccc(Cl)cc1 [AB00301782] | 2.01 µg/mL | 1.55 | 1.64 | 1.42 | 0.87 | > 25 µg/mL |  | 
O=C(NCCSCc1c(F)cccc1Cl)c1cccc([N+](=O)[O-])c1 [AB00306112] | 5.86 µg/mL | 1.85 | 1.38 | 1.68 | 2.88 | > 25 µg/mL |  | 
Oc1ccc(Nc2nc(-c3ccc(O)cc3)cs2)cc1 [AB00355020] | 2.77 µg/mL | 1 | 1.01 | 2.2 | 2.55 | > 25 µg/mL |  | 
Cc1sc(NC(=O)c2c(F)cccc2F)nc1-c1ccccc1 [AB00309154] | 6.41 µg/mL | 1.54 | 1.38 | 1.42 | 1.88 | > 25 µg/mL |  | 
Cc1cc(C)cc(C(=O)Nc2cccc(NC(=O)c3ccccc3C)c2)c1 [AB00353228] | 9.78 µg/mL | 1.55 | 2.87 | 3.42 | 3.43 | > 25 µg/mL |  | 

Further lines, with some results ahead:

EC50 [1] | Compound | log reduction at 3 µg/mL (RSV, Long strain) | log reduction at 6 µg/mL (RSV, Long strain) | log reduction at 12 µg/mL (RSV, Long strain) | log reduction at 25 µg/mL (RSV, Long strain) | CC50 at 6 days [2] | log reduction at 5 µg/mL (RSV, Long strain) | log reduction at 50 µg/mL (RSV, Long strain)
2.4 µM | O=c1cnn([C@@H]2O[C@H](CO)[C@@H](O)[C@H]2O)c(=O)[nH]1 [SRI-7958] |  |  | 5.98 | 5.56 | > 50 µM | 3.58 | 5.87
6.76 µg/mL | CCOC(=O)Cc1ccc(NC(=O)c2cc(SC)ccc2Cl)cc1 [AB00359299] | 1 | 1.22 | 1.99 | 2.83 | > 25 µg/mL |  | 
4.47 µg/mL | COc1ccc(CNCCC(c2ccc(F)cc2)c2ccco2)cc1OC (stereo not drawn) [AB00362846] | 1 | 1.92 | 2.82 | 5.48 | > 25 µg/mL |  | 
6.3 µM | COCC(C)n1c(SC(C)C(=O)Nc2cc([N+](=O)[O-])ccc2Cl)nc2ccccc2c1=O (stereo not drawn) [AB00725538] |  |  | 4.98 | 5.56 | > 50 µM | 2.95 | 5.87
9.56 µg/mL | O=C(Cc1ccc(Br)cc1)Nc1ccccc1C(=O)O [AB00369287] | 1 | 3.31 | 4.73 | 6.57 | > 25 µg/mL |  | 
1.71 µg/mL | c1coc(-c2nn3c(Cn4cnc5ccccc54)nnc3s2)c1 [AB00369924] | 1 | 2.62 | 3.22 | 2.61 | > 25 µg/mL |  | 
4.2 µg/mL | CCOC(=O)C1=C(C)NC(C)=C(C(=O)OCC)C1c1ccc(C#N)cc1 [AB00370331] | -0.15 | 1.39 | 1.7 | 2.89 | > 25 µg/mL |  | 
9.43 µg/mL | COc1c(C)cccc1C(=O)NCCOc1ccc(Cl)cc1 [AB00368252] | 1 | 1.3 | 1.72 | 4.94 | > 25 µg/mL |  | 
5.77 µg/mL | COc1ccccc1CCNC(=O)c1cc2c(s1)CCCC2 [AB00367930] | 1.82 | 1.04 | 2.68 | 6.4 | > 25 µg/mL |  | 
9.09 µM | CC(=O)Nc1nc(N)nc2ccc(CNc3ccc(C(=O)N[C@H](CCC(=O)O)C(=O)O)cc3)nc12 [SRI-10531] |  |  | 0.97 | -0.02 | > 50 µM | 0.16 | 0.28
9.58 µM | COCCn1c(SC(C)C(=O)Nc2cccc(C(F)(F)F)c2)nc2ccccc21 (stereo not drawn) [AB00802246] |  |  | 3.98 | 4.42 | > 50 µM | 2.26 | 5.87
4.37 µg/mL | CSc1ccccc1C(=O)Nc1ccc(S(=O)(=O)Nc2cccc(Cl)c2Cl)cc1 [AB00370446] | 1 | 1.32 | 3.21 | 6.57 | > 25 µg/mL |  | 
